Measured values from PubChem BioAssay AID206 (DTP/NCI, 2004).
Records with an inconclusive call do not appear.

Tested on: nude mice, HT29 intrarenal xenograft, tumor weight T/C
Experiment: NCI In Vivo Anticancer Drug Screen. Data for tumor model HT29;CX-1 Human Adenocarcinoma (MER+) (intrarenal inoculation) in NU/NU Swiss (nude) mice
Settings: endpoint: mean tumor weight change, higher = larger tumour
Procedure: The antitumor activity of compounds was measured in mice bearing transplantable tumors. Survival or tumor size were measured and the results are expressed as the measurement made in the treated group (T) divided by the measurement made in the vehicle treated control group (C). The tumor model used in this assay is HT29;CX-1 Human Adenocarcinoma (MER+) (intrarenal inoculation) in NU/NU Swiss (nude) mice

[1] = dose: 12.5 mg/kg/injection, schedule: Q04DX004 (sc), vehicle: suspension in saline
[2] = dose: 25.0 mg/kg/injection, schedule: Q04DX004 (sc), vehicle: suspension in saline

CCCCCC(=O)O[C@]1(C(C)=O)CC[C@H]2[C@@H]3CCC4=CC(=O)CC[C@]4(C)[C@H]3CC[C@@]21C
T/C (dose: 225.0 mg/kg/injection, schedule: Q04DX004 (sc), vehicle: Klucel (hydroxypropylcellulose) (HPC)): 73 % of control | T/C (dose: 450.0 mg/kg/injection, schedule: Q04DX004 (sc), vehicle: Klucel (hydroxypropylcellulose) (HPC)): 46 % of control | T/C (dose: 900.0 mg/kg/injection, schedule: Q04DX004 (sc), vehicle: Klucel (hydroxypropylcellulose) (HPC)): 58 % of control | T/C (dose: 1800.0 mg/kg/injection, schedule: Q04DX004 (sc), vehicle: Klucel (hydroxypropylcellulose) (HPC)): 36 % of control

Nc1n[nH]c(N)n1
T/C (dose: 200.0 mg/kg/injection, schedule: Q01DX010 (sc), vehicle: saline): 295 % of control | T/C (dose: 400.0 mg/kg/injection, schedule: Q01DX010 (sc), vehicle: saline): 157 % of control | T/C (dose: 800.0 mg/kg/injection, schedule: Q01DX010 (sc), vehicle: saline): 215 % of control

C[C@@]1(CO)[C@H](O)CC[C@@]2(C)[C@H]1CC[C@H]1C[C@@H]3C[C@@]12CC[C@@]3(O)COC(=O)CN
T/C (dose: 8.0 mg/kg/injection, schedule: Q04DX004 (sc), vehicle: saline + alcohol): 226 % of control | T/C (dose: 16.0 mg/kg/injection, schedule: Q04DX004 (sc), vehicle: saline + alcohol): 106 % of control | T/C (dose: 32.0 mg/kg/injection, schedule: Q04DX004 (sc), vehicle: saline + alcohol): 94 % of control | T/C (dose: 64.0 mg/kg/injection, schedule: Q04DX004 (sc), vehicle: saline + alcohol): 218 % of control | T/C (dose: 500.0 micrograms/kg/injection, schedule: Q04DX004 (sc), vehicle: saline + alcohol): 97 % of control | T/C (dose: 1000.0 micrograms/kg/injection, schedule: Q04DX004 (sc), vehicle: saline + alcohol): 108 % of control | T/C (dose: 2000.0 micrograms/kg/injection, schedule: Q04DX004 (sc), vehicle: saline + alcohol): 101 % of control | T/C (dose: 4000.0 micrograms/kg/injection, schedule: Q04DX004 (sc), vehicle: saline + alcohol): 73 % of control

OCC1OC(n2cnc3c(Cl)ncnc32)C(O)C1O (centres undefined)
T/C (dose: 300.0 mg/kg/injection, schedule: Q04DX004 (sc), vehicle: saline): 94 % of control | T/C (dose: 600.0 mg/kg/injection, schedule: Q04DX004 (sc), vehicle: saline): 84 % of control | T/C (dose: 1200.0 mg/kg/injection, schedule: Q04DX004 (sc), vehicle: saline): 150 % of control

O=C(NO)c1cc(O)c(O)c(O)c1
T/C (dose: 200.0 mg/kg/injection, schedule: Q04DX004 (sc), vehicle: water): 83 % of control | T/C (dose: 400.0 mg/kg/injection, schedule: Q04DX004 (sc), vehicle: water): 60 % of control | T/C (dose: 800.0 mg/kg/injection, schedule: Q04DX004 (sc), vehicle: water): 56 % of control | T/C (dose: 1600.0 mg/kg/injection, schedule: Q04DX004 (sc), vehicle: water): 71 % of control

CC1=C2CC(C)(C)/C=C\C(=O)/C(C)=C\C3=C[C@H](C)C[C@]3(O2)C1=O
T/C (dose: 50.0 mg/kg/injection, schedule: Q01DX010 (sc), vehicle: Klucel (hydroxypropylcellulose) (HPC)): 49 % of control

CC(=O)Nc1cscc1NC(C)=O
T/C (dose: 75.0 mg/kg/injection, schedule: Q04DX004 (sc), vehicle: saline with Tween-80): 84 % of control | T/C (dose: 150.0 mg/kg/injection, schedule: Q04DX004 (sc), vehicle: saline with Tween-80): 81 % of control | T/C (dose: 300.0 mg/kg/injection, schedule: Q04DX004 (sc), vehicle: saline with Tween-80): 155 % of control | T/C (dose: 600.0 mg/kg/injection, schedule: Q04DX004 (sc), vehicle: saline with Tween-80): 155 % of control | T/C (dose: 1200.0 mg/kg/injection, schedule: Q04DX004 (sc), vehicle: saline with Tween-80): 82 % of control | T/C (dose: 2400.0 mg/kg/injection, schedule: Q04DX004 (sc), vehicle: saline with Tween-80): 118 % of control

O=S(=O)(O)O.[NH-]C1CCCCC1[NH-].[Pt+2] (centres undefined)
T/C (dose: 0.62 mg/kg/injection, schedule: Q01DX010 (sc), vehicle: dextrose): 21 % of control

O=c1[nH]cnc2c1ccn2C1OC(CO)C(O)C1O (centres undefined)
T/C (dose: 5.0 mg/kg/injection, schedule: Q04DX004 (sc), vehicle: saline): 48 % of control | T/C (dose: 10.0 mg/kg/injection, schedule: Q04DX004 (sc), vehicle: saline): 61 % of control | T/C (dose: 20.0 mg/kg/injection, schedule: Q04DX004 (sc), vehicle: saline): 69 % of control | T/C (dose: 40.0 mg/kg/injection, schedule: Q04DX004 (sc), vehicle: saline): 97 % of control

Cc1cc2c(c3oc(C4(C)OC4C4OC4C)cc(=O)c13)C(=O)c1c(O)c(C3CC(C)(N(C)C)C(O)C(C)O3)cc(C3CC(N(C)C)C(O)C(C)O3)c1C2=O (centres undefined)
T/C (dose: 0.13 mg/kg/injection, schedule: Q01DX010 (sc), vehicle: saline): 50 % of control

Cc1c2cc[n+](CCN3CCCCC3)cc2c(C)c2c1[nH]c1ccc(O)cc12
T/C [1]: 100 % of control | T/C [2]: 108 % of control | T/C (dose: 50.0 mg/kg/injection, schedule: Q04DX004 (sc), vehicle: suspension in saline): 98 % of control

CCCCCc1cc(O)c2c(c1)OC(C)(C)[C@@H]1CCC(C)=C[C@@H]21
T/C (dose: 150.0 mg/kg/injection, schedule: Q04DX004 (sc), vehicle: other): 117 % of control | T/C (dose: 300.0 mg/kg/injection, schedule: Q04DX004 (sc), vehicle: other): 76 % of control | T/C (dose: 600.0 mg/kg/injection, schedule: Q04DX004 (sc), vehicle: other): 68 % of control | T/C (dose: 1200.0 mg/kg/injection, schedule: Q04DX004 (sc), vehicle: other): 36 % of control

O=c1[nH]cnc2[nH]ncc12
T/C (dose: 150.0 mg/kg/injection, schedule: Q04DX004 (sc), vehicle: suspension in saline): 33 % of control | T/C (dose: 300.0 mg/kg/injection, schedule: Q04DX004 (sc), vehicle: suspension in saline): 31 % of control | T/C (dose: 600.0 mg/kg/injection, schedule: Q04DX004 (sc), vehicle: suspension in saline): 21 % of control | T/C (dose: 1200.0 mg/kg/injection, schedule: Q04DX004 (sc), vehicle: suspension in saline): 31 % of control

c1cc(OCC2CO2)ccc1OCC1CO1 (centres undefined)
T/C (dose: 200.0 mg/kg/injection, schedule: Q04DX004 (sc), vehicle: saline with Tween-80): 79 % of control | T/C (dose: 400.0 mg/kg/injection, schedule: Q04DX004 (sc), vehicle: saline with Tween-80): 106 % of control

[Cl][Pt+2][Cl].[NH-]CC1(C[NH-])CCC1
T/C [1]: 87 % of control | T/C [2]: 61 % of control

CCN(CC)CCNc1ccc(C)c2sc3ccccc3c(=O)c12
T/C (dose: 100.0 mg/kg/injection, schedule: Q01DX010 (sc), vehicle: saline): 87 % of control

CN(C)[C@@H]1C(=O)C(C(N)=O)=C(O)[C@@]2(O)C(=O)C3=C(O)c4c(O)ccc(Cl)c4[C@@](C)(O)[C@H]3C[C@@H]12
T/C (dose: 200.0 mg/kg/injection, schedule: Q04DX004 (sc), vehicle: saline): 62 % of control | T/C (dose: 400.0 mg/kg/injection, schedule: Q04DX004 (sc), vehicle: saline): 87 % of control | T/C (dose: 800.0 mg/kg/injection, schedule: Q04DX004 (sc), vehicle: saline): 82 % of control | T/C (dose: 1600.0 mg/kg/injection, schedule: Q04DX004 (sc), vehicle: saline): 66 % of control

O=C1CN(CN2CCOCC2)C(=O)CN1CN1CCOCC1
T/C (dose: 25.0 mg/kg/injection, schedule: Q01DX010 (sc), vehicle: suspension in saline): 53 % of control | T/C (dose: 50.0 mg/kg/injection, schedule: Q01DX010 (sc), vehicle: suspension in saline): 122 % of control | T/C (dose: 100.0 mg/kg/injection, schedule: Q01DX010 (sc), vehicle: suspension in saline): 114 % of control | T/C (dose: 200.0 mg/kg/injection, schedule: Q01DX010 (sc), vehicle: suspension in saline): 69 % of control

CCN(CC)CCCNc1nccc2c(C)c3[nH]c4ccncc4c3cc12
T/C (dose: 2.5 mg/kg/injection, schedule: Q01DX010 (sc), vehicle: other): 117 % of control | T/C (dose: 5.0 mg/kg/injection, schedule: Q01DX010 (sc), vehicle: other): 108 % of control | T/C (dose: 10.0 mg/kg/injection, schedule: Q01DX010 (sc), vehicle: other): 56 % of control

CN(C)N=Nc1ccccc1
T/C (dose: 25.0 mg/kg/injection, schedule: Q04DX004 (sc), vehicle: Klucel (hydroxypropylcellulose) (HPC)): 93 % of control | T/C (dose: 50.0 mg/kg/injection, schedule: Q04DX004 (sc), vehicle: Klucel (hydroxypropylcellulose) (HPC)): 62 % of control | T/C (dose: 100.0 mg/kg/injection, schedule: Q04DX004 (sc), vehicle: Klucel (hydroxypropylcellulose) (HPC)): 84 % of control

c1ccc2sc(SSN3CC4CCC(CC4)C3)nc2c1
T/C (dose: 50.0 mg/kg/injection, schedule: Q01DX010 (sc), vehicle: saline with Tween-80): 120 % of control | T/C (dose: 400.0 mg/kg/injection, schedule: Q01DX010 (sc), vehicle: saline with Tween-80): 96 % of control

Cc1c2c(ccc3ccccc32)c[n+]2ccccc12
T/C (dose: 6.25 mg/kg/injection, schedule: Q01DX010 (sc), vehicle: saline): 84 % of control | T/C (dose: 12.5 mg/kg/injection, schedule: Q01DX010 (sc), vehicle: saline): 82 % of control
